# Assay results from patent US4036696A, “Preparation of antibiotics by fermentation” (priority 1976, dated 1977).
# Experiments:
# cephalosporinases = test: resistance to cephalosporinases / enzymatic degradation; format: biochemical
# [1] = test system: gram-negative and gram-positive organisms; test: in vivo activity against infections (in words); parameters: species or system mice
# Protocol: Methods: The method employed in this characterization is as follows: Female white Swiss mice, average weight 20-23 grams, were infected intraperitoneally with 3-20 times the number of organisms calculated to be lethal for 50% of the infected control animals (3-20 LD50 doses). At the time of infection and again 6 hours later, therapy was given by the designated route. Controls of the virulence of the culture and the toxicity of the antibiotic for uninfected mice were included in the tests. Seven days after infection the test was considered complete and the amount of the antibiotic (I) that would be required to protect 50% of the infected and treated animals was calculated by the method of Knudsen and Curtis: J. Amer. Stat. Assoc. Vol. 42: page 282 (1947).
# The method employed in these studies is the same as described above with regard to the in vivo characterization of 810A.
# [2] = test system: Proteus vulgaris (MB-838); test: disc-plate assay using Proteus vulgaris; format: cell-based; conditions: read-out: concentration giving a 25 mm. zone
smiles,measurement,setting,value
"COC(=Cc1ccc(OS(=O)(=O)O)cc1)C(=O)OCC1=C(C(=O)O)N2C(=O)[C@](NC(=O)CCC[C@@H](N)C(=O)O)(OC)[C@H]2SC1 [Ic, 7β-(D-5-amino-5-carboxyvaleramido)-3-(α-methoxy-p-sulfooxycinnamoyloxymethyl)-7-methoxy-3-cephem-4-carboxylic acid]",resistance to enzymatic degradation compared with cephalosporin C,cephalosporinases,more resistant to enzymatic degradation than cephalosporin C
same,effectiveness against infections,[1]; administered intraperitoneally,effective against a variety of gram-negative and gram-positive infections
same,oral protection against infections,[1]; given orally,protects against infections due to Proteus vulgaris
same,IC (25 mm zone),[2],88 µg/mL
